Key:
[1] = Surface properties (BET specific surface area, porosity, rugosity); type: physicochemical
Source text: As used herein, specific surface area (SSA) refers to the SSA calculated from gas adsorption data according to a theory developed by Brunauer, Emmett, and Teller (J Amer Chem Soc 1938, 60:309), generally referred to as the BET method.
As used herein, particle porosity refers to the total pore volume in %, calculated from nitrogen gas absorption data. In nitrogen adsorption, the pores are filled (and emptied) according to the Kelvin capillary condensation equation. As the partial pressure of nitrogen increases, condensation of the gas will begin in the smaller pores and progressively fill larger and larger pores until bulk condensation occurs. Using this technique, nitrogen is first condensed in the pores by setting the partial pressure of nitrogen to a value near saturation. Then, the nitrogen is gradually desorbed in a stepwise fashion by reducing its vapor pressure. The pore size distribution is calculated by analyzing the nitrogen desorption isotherm using the Kelvin equation to determine the amount of condensed nitrogen in the pores (assuming a cylindrical pore geometry), wherein the adsorptive loss at each step represents the core volume of pores emptied during that step. The calculation is automated, and follows the algorithm proposed by Barrett et al (Barrett E P, Joyner L G, Halenda P P: The determination of pore volume and area distributions in porous substances I. computations from nitrogen isotherms. J Amer Chem Soc 1951, 73:373-380). This approach holds for pore diameters as small as about 2 nm, i.e., down to the […] region.
Rugosity (Sv) is a measure of the surface roughness of an engineered powder. For the purposes of this invention, rugosity is calculated from the specific surface area obtained from BET measurements, the true density obtained by helium pycnometry, and the surface/volume ratio of the particle obtained by laser diffraction (Sympatec), viz:
Significant increases in specific surface area, porosity, and rugosity Sv are observed for the phospholipid-coated particles relative to micronized drug. […]

[2] = Powder dispersibility, laser diffraction with varied RODOS dispersing pressure; type: physicochemical; details: dispersing pressure 0.2 bar
Protocol: As used herein, the relative dispersibility of spray-dried powders is determined with the Sympatec (laser diffraction) by varying the dispersing pressure of the RODOS dispersion unit, from about 0.2 bar to 4.0 bar. As used herein, the dispersibility index, δ (delta), is defined as the ratio of the x50 measured at a dispersing pressure of 0.2 bar to that at 4.0 bar.
The relative dispersibility of powder formulations can be studied with the laser diffraction technique by varying the dispersing pressure in the RODOS disperser. […] The ratio of the median particle sizes measured at low and high dispersing pressures is a measure of the dispersibility of the powder.

[3] = background; cited from earlier work

## O=C(O)c1cn(C2CC2)c2cc(N3CCNCC3)c(F)cc2c1=O [Lot BXA1GE7]
[1]; API shape factor = 1.27
  Rugosity Sv: 1.1
[1]; BET
  Specific Surface Area: 4.4 m^2/g
[1]; laser diffraction
  Sympatec Sv: 4.91 m^2/cm^3

## O=C(O)c1cn(C2CC2)c2cc(N3CCNCC3)c(F)cc2c1=O [ciprofloxacin betaine]
[2]
  x50: 3.5 μm

## O=C(O)c1cn(C2CC2)c2cc(N3CCNCC3)c(F)cc2c1=O [ciprofloxacin]
[3]
  pK1: 6.0
